Measurements published in patent publication US9562003B2, “Methods of using substituted tetracycline compounds to modulate RNA” (Paratek Pharmaceuticals, Inc., priority 2002, dated 2017).

Tests used:
mRNAs in J774.2 cells = test: Affymetrix microarray: mRNAs up- or down-regulated by Compounds A and B in LPS-stimulated macrophages; assay type: cell-based, murine; details: 50 μg/ml compound + 100 ng/ml LPS, 24 hours, J774.2 only; for Numbers of mRNAs with levels significantly altered by both Compounds A and B, in the presence of LPS: Decreased: decreased at least 2-fold by both compounds; for Numbers of mRNAs with levels significantly altered by both Compounds A and B, in the presence of LPS: Increased: increased at least 2-fold by both compounds
Experimental: (§1) Two murine macrophage cell lines were used: J774.2 (gift from Peter Lambert, Aston University, UK), and RAW 264.7 (ATCC item number TIB-71). Cells were harvested from nearly confluent culture flasks and seeded into 6 well plates at a density of 5×10^6 cells well^−1 in a volume of 3 ml Dulbecco's modified essential medium supplemented with 10% fetal calf serum. After 2 hours, cells were exposed to the following conditions:
5) 50 μg/ml Compound A+100 ng/ml LPS (J774 cells only)
6) 50 μg/ml Compound B+100 ng/ml LPS (J774 cells only)
(§2) The tetracycline compounds were added 1.5 hours post seeding, thirty minutes before the addition of LPS. The plates were incubated at 37° C. at 5% CO2 in a humidified incubator.
(§3) 24 hours after incubation under experimental conditions, media was removed from the wells, and total RNA was purified from each sample using QIAGEN RNeasy® Mini columns. The manipulations which were then performed on the total RNA samples were as outlined in The Affymetrix® GeneChip® Expression Analysis technical manual, sections 2, chapter 1, entitled Eukaryotic Target Preparation. Briefly, RNA was reverse transcribed into double stranded cDNA with an oligo dT primer containing a T7 promoter. The product was then purified by phenol:chloroform:isoamyl extraction and ethanol precipitation, and then used in an […] to synthesize biotin-labelled antisense cRNA (Affymetrix controls of B. subtilis genes excised from pBluescript plasmid with Xho I digestion were added at this stage to control for correct translation and biotin incorporation). The cRNA was then cleaned using QIAGEN RNeasy® Mini columns, and the resulting cRNA solution fragmented using metal-induced hydrolysis.
Samples were prepared for hybridization with the Affymetrix murine genome chips U74AV2 according to the directions in the Affymetrix® GeneChip® Expression Analysis technical manual, sections 2, chapters 3 and 4, entitled Eukaryotic Target Hybridization and Eukaryotic Arrays: Washing Staining and Scanning. Briefly, 15 ug Fragmented cRNA was mixed with Affymetrix hybridization controls, herring sperm DNA, BSA, and concentrated hybridization buffer, boiled for 5 minutes, centrifuged at 14000×g for 5 minutes to obtain a precipitated-free solution, and hybridized with the array for 16 hours. […]
For J774.2 cells stimulated by LPS, two lists were generated, one of mRNAs which were increased at lease 2-fold by Compounds A and/or B, and one of mRNAs which were decreased at least 2-fold by Compounds A and/or B. In the case of mRNAs which were increased, the mRNAs had to be statistically ‘Present’ in the samples which contained Compounds A and/or B (‘Present’ as determined by the Affymetrix microarray suite software).

in vitro = assay type: cell-based; details: African green monkey (COS-1) and Chinese hamster (CHO-K1)
Experimental: COS-1 and CHO-K1 cell suspensions were prepared, seeded into 96-well tissue culture treated black-walled microtiter plates (density determined by cell line), and incubated overnight at 37° C., in 5% CO2 and approximately 95% humidity. The following day, serial dilutions of drug were prepared under sterile conditions and transferred to cell plates. Cell/Drug plates were incubated under the above conditions for 24 hours. Following the incubation period, media/drug was aspirated and 50 μl of Resazurin (0.042 mg/ml in PBS w/Ca and Mg) was added. The plates were then incubated under the above conditions for 2 hours and then in the dark at room temperature for an additional 30 minutes. Fluorescence measurements were taken (excitation 535 nm, emission 590 nm). The IC50 (concentration of drug causing 50% growth inhibition) was then calculated.

[1] = test system: mRNAs in J774.2 and RAW264.7 cells; test: Affymetrix microarray: mRNAs up- or down-regulated by minocycline in murine macrophage cell lines; assay type: cell-based; details: 24 hours
Experimental: as §1
1) control (J774 cells on two separate occasions, and RAW 264.7 cells)
2) 50 μg/ml minocycline (J774 cells on two separate occasions, and RAW 264.7 cells)
3) 100 ng/ml LPS (J774 cells on two separate occasions, and RAW 264.7 cells)
4) 50 μg/ml minocycline+100 ng/ml LPS (J774 cells on two separate occasions, and RAW 264.7 cells)
as §2
as §3, with “hydrolysis. […]” for “hydrolysis.”
For both J774.2 and RAW264.7 cells, two lists were generated, one of mRNAs which were increased at lease 2-fold by minocycline, and one of mRNAs which were decreased at least 2-fold by minocycline. In the case of mRNAs which were increased, the mRNAs had to be statistically ‘Present’ in the samples which contained minocycline (‘Present’ as determined by the Affymetrix microarray suite software). […]
For both J774.2 and RAW264.7 cells stimulated by LPS, two lists were generated, one of mRNAs which were increased at lease 2-fold by minocycline, and one of mRNAs which were decreased at least 2-fold by minocycline. In the case of mRNAs which were increased, the mRNAs had to be statistically ‘Present’ in the samples which contained minocycline (‘Present’ as determined by the Affymetrix microarray suite software).

| SMILES | Numbers of mRNAs with levels significantly altered by both Compounds A and B, in the presence of LPS: Decreased (mRNAs in J774.2 cells) | Numbers of mRNAs with levels significantly altered by both Compounds A and B, in the presence of LPS: Increased (mRNAs in J774.2 cells) | IC50 at 24 h (in vitro) | Numbers of mRNAs with levels significantly altered by minocycline, in the presence of LPS: Decreased ([1]; 50 μg/ml minocycline + 100 ng/ml LPS, decreased at least 2-fold, common to all three lists (J774.2 twice, RAW264.7)) | Numbers of mRNAs with levels significantly altered by minocycline, in the presence of LPS: Increased ([1]; 50 μg/ml minocycline + 100 ng/ml LPS, increased at least 2-fold, common to all three lists (J774.2 twice, RAW264.7)) | Numbers of mRNAs with levels significantly altered by minocycline: Decreased ([1]; 50 μg/ml minocycline, no LPS, decreased at least 2-fold, mRNAs common to all three lists (J774.2 twice, RAW264.7)) | Numbers of mRNAs with levels significantly altered by minocycline: Increased ([1]; 50 μg/ml minocycline, no LPS, increased at least 2-fold, mRNAs common to all three lists (J774.2 twice, RAW264.7)) |
| --- | --- | --- | --- | --- | --- | --- | --- |
| C[C@H]1c2ccc(N3CCCCC3)c(O)c2C(=O)C2=C(O)[C@]3(O)C(=O)C(C(N)=O)=C(O)C(N(C)C)[C@@H]3[C@@H](O)[C@@H]21 (stereo partly shown) [Compound B] | 108 | 133 |  |  |  |  |  |
| C[C@H]1c2cccc(O)c2C(=O)C2=C(O)[C@]3(O)C(=O)C(C(N)=O)=C(O)[C@@H](N(C)C)[C@@H]3[C@@H](O)[C@@H]21 [doxycycline] |  |  | > 25 µg/mL |  |  |  |  |
| CN(C)C1C(O)=C(C(N)=O)C(=O)[C@@]2(O)C(O)=C3C(=O)c4c(O)ccc(CNCC(C)(C)C)c4C[C@H]3C[C@@H]12 (stereo partly shown) [Compound A] | 108 | 133 |  |  |  |  |  |
| CN(C)c1ccc(O)c2c1C[C@H]1C[C@H]3[C@H](N(C)C)C(O)=C(C(N)=O)C(=O)[C@@]3(O)C(O)=C1C2=O [minocycline] |  |  | > 25 µg/mL | 9 | 28 | 4 | 21 |
